One data set deals with Jurkat T cells. Put plainly: exNef secretion, Mortalin scanning peptides (Figure 5A), Jurkat T cells. Type of data set: cell-based. As to conditions: for Jurkat GFP (exNef secretion): 50 ng / 200 μL peptide, 250 ng Nef-GFP plasmid, GFP fluorescence in media, SMRmut = 100, mean of three independent experiments. How it is done:
To determine whether Mortalin-derived peptides can inhibit the secretion of extracellular Nef (exNef), Jurkat T cells were co-transfected with wild-type Nef-GFP and various scanning peptides derived from the substrate-binding domain of Mortalin (#56–#67). SMRwt and SMRmut peptides were included as positive and negative controls, respectively. After 48 h of incubation, GFP fluorescence in the culture media was measured as a proxy for exNef secretion.
(§1) Figure 5 Effects of Mortalin-derived peptides on inhibition of exNef and tumor exosome secretion. (A) Jurkat T cells were co-transfected with 250 ng of wild-type Nef-GFP plasmid and 50 ng of Mortalin-derived scanning peptides (#56–#67), including SMRwt and SMRmut as positive and negative controls. After 48 h, GFP fluorescence in culture media was measured to assess exNef secretion. Data represent mean ± SD from three independent experiments. Statistical significance was determined using a two-sample t-test assuming equal variances. (B) MDA-MB-231 cells were transfected with 50 ng of Mortalin-derived scanning peptides (#56–#67), including SMRwt and SMRmut controls. Cells were labeled with N-Rh-PE and incubated for 48 h. N-Rh-PE fluorescence in culture media was measured to assess exosome secretion. Data represent mean ± SD from three independent experiments. Statistical significance was determined using a two-sample t-test assuming equal variances. TEXT PRINTED IN THE PICTURE: (A) #56: Jurkat GFP (%): 117.84 (50 ng / 200 μL) | (A) #57: Jurkat GFP (%): 96.69 (50 ng / 200 μL) | (A) #58: Jurkat GFP (%): 91.89 (50 ng / 200 μL) | (A) #59: Jurkat GFP (%): 95.49 (50 ng / 200 μL) | (A) #60: Jurkat GFP (%): 98.25 (50 ng / 200 μL) | (A) #61: Jurkat GFP (%): 0.65 (50 ng / 200 μL) | (A) #62: Jurkat GFP (%): 0.51 (50 ng / 200 μL) | (A) #63: Jurkat GFP (%): 98.02 (50 ng / 200 μL) | (A) #64: Jurkat GFP (%): 95.37 (50 ng / 200 μL) | (A) #65: Jurkat GFP (%): 96.34 (50 ng / 200 μL) | (A) #66: Jurkat GFP (%): 92.28 (50 ng / 200 μL) | (A) #67: Jurkat GFP (%): 99.56 (50 ng / 200 μL) | (A) SMRwt: Jurkat GFP (%): 0.51 (50 ng / 200 μL) | (A) SMRmut: Jurkat GFP (%): 100 (50 ng / 200 μL) | (B) #56: MDA-MB-231 N-Rh-PE (%): 66.31 (50 ng / 200 μL) | (B) #57: MDA-MB-231 N-Rh-PE (%): 79.73 (50 ng / 200 μL) | (B) #58: MDA-MB-231 N-Rh-PE (%): 68.11 (50 ng / 200 μL) | (B) #59: MDA-MB-231 N-Rh-PE (%): 67.81 (50 ng / 200 μL) | (B) #60: MDA-MB-231 N-Rh-PE (%): 72.32 (50 ng / 200 μL) | (B) #61: MDA-MB-231 N-Rh-PE (%): 7.53 (50 ng / 200 μL) | (B) #62: MDA-MB-231 N-Rh-PE (%): 5.36 (50 ng / 200 μL) | (B) #63: MDA-MB-231 N-Rh-PE (%): 75.39 (50 ng / 200 μL) | (B) #64: MDA-MB-231 N-Rh-PE (%): 73.49 (50 ng / 200 μL) | (B) #65: MDA-MB-231 N-Rh-PE (%): 81.65 (50 ng / 200 μL) | (B) #66: MDA-MB-231 N-Rh-PE (%): 81.79 (50 ng / 200 μL) | (B) #67: MDA-MB-231 N-Rh-PE (%): 89.82 (50 ng / 200 μL) | (B) SMRwt: MDA-MB-231 N-Rh-PE (%): 6.11 (50 ng / 200 μL) | (B) SMRmut: MDA-MB-231 N-Rh-PE (%): 100 (50 ng / 200 μL)
To identify peptide sequences within Mortalin that modulate extracellular vesicle (EV) secretion, a panel of scanning peptides was synthesized and tested in Jurkat T cells. The peptides, listed in Table 1, were custom-synthesized with an average purity of 75% and used in transfection assays to evaluate their impact on EV release. Jurkat T cells (3 × 10^5) were co-transfected with 50 ng of individual Mortalin peptides […] 250 ng of wild-type Nef-GFP plasmid using Chariot™ transfection reagent. Transfection efficiency was confirmed by fluorescence microscopy after 48 h. EV secretion was assessed by measuring GFP fluorescence in the culture media, and statistical analysis was performed using unpaired two-factor t-tests (p < 0.05). Panel of Mortalin scanning peptides developed and tested for their effect EV secretion and Table S2. Mortalin Scanning Peptides Used in Transfection Assays, see the Supplementary Information. […]

Data set [1] relates to MDA-MB-231 cells. The data set is described as follows: Tumor exosome secretion, Mortalin scanning peptides (Figure 5B), MDA-MB-231. Type of data set: cell-based, human. To be noted: 48 h; for MDA-MB-231 N-Rh-PE (exosome secretion): 50 ng / 200 μL peptide, transfected, N-Rh-PE fluorescence in media, SMRmut = 100, mean of three independent experiments. How it is done: as §1
To assess the effect of Mortalin-derived peptides on tumor exosome secretion, MDA-MB-231 breast cancer cells were transfected with the same panel of scanning peptides and labeled with N-Rh-PE to track exosome release. Following incubation, N-Rh-PE fluorescence in the culture media was measured as a proxy for extracellular exosome levels. SMRwt and SMRmut peptides were again used as controls. […] Statistical analysis confirmed significant differences: SMRmut vs. #61 (p < 7.20 × 10^−7), SMRmut vs. #62 (p < 5.70 × 10^−7), and SMRmut vs. SMRwt (p < 5.96 × 10^−7).

The test system of data set [2] is MDA-MB-231 cells. Described as above. Type of data set: cell-based, human. As to conditions: MDA-MB-231 exosome experiment.

On to “DQLPADECNKLKEEISKMRE [#61, Mortalin scanning peptide 61]”, for which, in the data set with Jurkat T cells (48 h), the “Jurkat GFP (exNef secretion)” value turned out to be 0.65%. In the data set on Jurkat T cells (Jurkat exNef experiment), the “cluster formation / potential peptide aggregation” value is given as “formed small clusters”. The “p, SMRmut vs. peptide, exNef secretion” value with Jurkat T cells (two-sample t-test assuming equal variances, 50 ng peptide, 48 h) is reported as < 1.47 × 10^−13. For the same substance, in the data set with MDA-MB-231 cells [1], the “MDA-MB-231 N-Rh-PE (exosome secretion)” value came to 7.53%. Also, in the data set on MDA-MB-231 cells [1] (two-sample t-test assuming equal variances, 50 ng peptide), the “p, SMRmut vs. peptide, exosome secretion” value was < 7.20 × 10^−7. Further, the cluster formation result in the data set on MDA-MB-231 cells [2] is on record as “formed small clusters”.
In the case of “^66Ala-Gly-Phe-Pro-Val^70 [SMRmut, 5-mer negative control, Val66 changed to Ala]”, the “Jurkat GFP (exNef secretion)” value with Jurkat T cells (48 h) worked out at 100%. For the same substance, the “MDA-MB-231 N-Rh-PE (exosome secretion)” value in the data set on MDA-MB-231 cells [1] was found to be 100%.
